This is an account of results in the supplement of paper PMC10477900.

pIC50: −log10 of the molar value. Counter-ions that a name gives are not always drawn.

The test system of test [1] is HCT116. The conditions noted are these: 72 h. The method, then:
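HCT116 control and MTA1-KO (CRISPR) HCT116 cells were seeded in 384-well plates (800 cells/well), treated 16 h later with 237 metabolism-related anticancer drugs at five doses (10 uM, 2 uM, 400 nM, 80 nM, 16 nM) for 72 h, two replicates; viability by CCK8. Values are % inhibition of viability relative to untreated cells, plus fitted IC50.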

Test [2] concerns HCT116. Description: viability inhibition vs untreated; higher = more cytotoxic. The conditions noted are these: 72 h.

For orientation: pIC50 means the IC50 on a negative log10 scale, so that one unit is a factor of ten.

Take `COc1cnc(NS(=O)(=O)c2ccc(N)cc2)nc1` [Sulfameter]: the negative logarithm of the IC50 (pIC50) in test [1] (genotype: MTA1-KO) and in test [1] (genotype: control) was under 5.00 each time. Further, the viability inhibition in test [2] (genotype: MTA1-KO, 16 nM) is -10.8%; in test [2] (genotype: MTA1-KO, 80 nM), -13.8%; in test [2] (genotype: MTA1-KO, 400 nM), -0.547%; in test [2] (genotype: MTA1-KO, 2000 nM), -4.82%; in test [2] (genotype: MTA1-KO, 10000 nM), -3.61%; in test [2] (genotype: control, 16 nM) it was 0.414%. Further, the viability inhibition in test [2] (genotype: control, 80 nM) stood at 5.13%; in test [2] (genotype: control, 400 nM), 12.1%; in test [2] (genotype: control, 2000 nM), 8.51%; in test [2] (genotype: control, 10000 nM), 0.478%.

Consider `Nc1ccc(S(N)(=O)=O)cc1` [Sulfanilamide], for which the pIC50 in test [1] (genotype: MTA1-KO) and in test [1] (genotype: control) was under 5.00 each time. Also, the viability inhibition was -4.56% in test [2] (genotype: MTA1-KO, 16 nM); -14.5% in test [2] (genotype: MTA1-KO, 80 nM); -27.6% in test [2] (genotype: MTA1-KO, 400 nM); -20.9% in test [2] (genotype: MTA1-KO, 2000 nM); -19.4% in test [2] (genotype: MTA1-KO, 10000 nM); -9.12% in test [2] (genotype: control, 16 nM). The viability inhibition in test [2] (genotype: control, 80 nM) was -7.95%; in test [2] (genotype: control, 400 nM) it was -13.7%; in test [2] (genotype: control, 2000 nM), -13.7%; in test [2] (genotype: control, 10000 nM), -7.82%.

On to `CC(C)(C)c1cc(O)ccc1O` [TBHQ], for which the negative-log IC50 (pIC50) in test [1] (genotype: MTA1-KO) and in test [1] (genotype: control) was under 5.00 in each case. Also, the viability inhibition is -1.6% in test [2] (genotype: MTA1-KO, 16 nM); -25.5% in test [2] (genotype: MTA1-KO, 80 nM); -23.4% in test [2] (genotype: MTA1-KO, 400 nM); -13.4% in test [2] (genotype: MTA1-KO, 2000 nM); 41.7% in test [2] (genotype: MTA1-KO, 10000 nM); 16.6% in test [2] (genotype: control, 16 nM). The viability inhibition in test [2] (genotype: control, 80 nM) is 25.3%; in test [2] (genotype: control, 400 nM) it was 20.9%; in test [2] (genotype: control, 2000 nM), 17.7%; in test [2] (genotype: control, 10000 nM) it was 17%.

For the molecule `CNc1cc(-c2cccc(Cl)c2Cl)nc(N)n1` [TH287 hydrochloride], the pIC50 in test [1] (genotype: MTA1-KO) was 5.80; in test [1] (genotype: control), 5.72. The viability inhibition in test [2] (genotype: MTA1-KO, 16 nM) is 18.9%; in test [2] (genotype: MTA1-KO, 80 nM), 15.8%; in test [2] (genotype: MTA1-KO, 400 nM), 23%; in test [2] (genotype: MTA1-KO, 2000 nM), 65.5%; in test [2] (genotype: MTA1-KO, 10000 nM), 94.7%; in test [2] (genotype: control, 16 nM), 4.08%. The viability inhibition was determined as 10.5% in test [2] (genotype: control, 80 nM); 1.79% in test [2] (genotype: control, 400 nM); 63.9% in test [2] (genotype: control, 2000 nM); 87.3% in test [2] (genotype: control, 10000 nM).

On to `Nc1nc(NC2CC2)cc(-c2cccc(Cl)c2Cl)n1` [TH588], for which the results for the negative-log IC50 (pIC50) in test [1] (genotype: MTA1-KO) and in test [1] (genotype: control) were 5.27 and 5.06, respectively. Also, the viability inhibition is -0.076% in test [2] (genotype: MTA1-KO, 16 nM); 6.2% in test [2] (genotype: MTA1-KO, 80 nM); 2.73% in test [2] (genotype: MTA1-KO, 400 nM); 14.7% in test [2] (genotype: MTA1-KO, 2000 nM); 80.3% in test [2] (genotype: MTA1-KO, 10000 nM); -7.89% in test [2] (genotype: control, 16 nM). The viability inhibition is -5.19% in test [2] (genotype: control, 80 nM); -7.31% in test [2] (genotype: control, 400 nM); -7.46% in test [2] (genotype: control, 2000 nM); 74% in test [2] (genotype: control, 10000 nM).

With `C=CC[C@@H]1/C=C(\C)C[C@H](C)C[C@H](OC)[C@H]2O[C@@](O)(C(=O)C(=O)N3CCCC[C@H]3C(=O)O[C@H](/C(C)=C/[C@@H]3CC[C@@H](O)[C@H](OC)C3)[C@H](C)[C@@H](O)CC1=O)[C@H](C)C[C@@H]2OC` [Tacrolimus], the pIC50 in test [1] (genotype: MTA1-KO) and in test [1] (genotype: control) was under 5.00 throughout. Moreover, the viability inhibition in test [2] (genotype: MTA1-KO, 16 nM) was -4.95%; in test [2] (genotype: MTA1-KO, 80 nM), -4.18%; in test [2] (genotype: MTA1-KO, 400 nM), 0.155%; in test [2] (genotype: MTA1-KO, 2000 nM), -5.39%; in test [2] (genotype: MTA1-KO, 10000 nM), -7.24%; in test [2] (genotype: control, 16 nM), 5.2%. In addition, the viability inhibition in test [2] (genotype: control, 80 nM) stood at 13.7%; in test [2] (genotype: control, 400 nM), 18%; in test [2] (genotype: control, 2000 nM), 7.23%; in test [2] (genotype: control, 10000 nM) it was 7.94%.

In the case of `CO[C@H]1C[C@@H]2CC[C@@H](C)[C@@](O)(O2)C(=O)C(=O)N2CCCC[C@H]2C(=O)O[C@H]([C@H](C)C[C@@H]2CC[C@@H](OC(=O)C(C)(CO)CO)[C@H](OC)C2)CC(=O)[C@H](C)/C=C(\C)[C@@H](O)[C@@H](OC)C(=O)[C@H](C)C[C@H](C)/C=C/C=C/C=C/1C` [Temsirolimus], the figures for the negative logarithm of the IC50 (pIC50) in test [1] (genotype: MTA1-KO) and in test [1] (genotype: control) were over 7.80 and under 5.00, respectively. In addition, the viability inhibition in test [2] (genotype: MTA1-KO, 16 nM) turned out to be 56.3%; in test [2] (genotype: MTA1-KO, 80 nM), 49.2%; in test [2] (genotype: MTA1-KO, 400 nM) it was 48.4%; in test [2] (genotype: MTA1-KO, 2000 nM), 46.7%; in test [2] (genotype: MTA1-KO, 10000 nM), 60.5%; in test [2] (genotype: control, 16 nM) it was 12%. Further, the viability inhibition in test [2] (genotype: control, 80 nM) was 10.7%; in test [2] (genotype: control, 400 nM), 8.05%; in test [2] (genotype: control, 2000 nM) it was -1.62%; in test [2] (genotype: control, 10000 nM) it was 46.1%.

As for `CC(=O)Nc1ccc(NC(=S)NC(=O)c2ccc(C(C)(C)C)cc2)cc1` [Tenovin-1], the figures for the pIC50 in test [1] (genotype: MTA1-KO) and in test [1] (genotype: control) were 6.34 and 6.03, respectively. Further, the viability inhibition in test [2] (genotype: MTA1-KO, 16 nM) is -26.3%; in test [2] (genotype: MTA1-KO, 80 nM), -21.8%; in test [2] (genotype: MTA1-KO, 400 nM), 12.8%; in test [2] (genotype: MTA1-KO, 2000 nM), 59.2%; in test [2] (genotype: MTA1-KO, 10000 nM) it was 62.3%; in test [2] (genotype: control, 16 nM), -20.9%. Also, the viability inhibition was -18.3% in test [2] (genotype: control, 80 nM); 3.67% in test [2] (genotype: control, 400 nM); 73.1% in test [2] (genotype: control, 2000 nM); 90.4% in test [2] (genotype: control, 10000 nM).

With `CN(C)CCCCC(=O)Nc1ccc(NC(=S)NC(=O)c2ccc(C(C)(C)C)cc2)cc1` [Tenovin-6], the pIC50 in test [1] (genotype: MTA1-KO) is under 5.00; in test [1] (genotype: control), 5.11. In addition, the viability inhibition in test [2] (genotype: MTA1-KO, 16 nM) is -14.1%; in test [2] (genotype: MTA1-KO, 80 nM), -19.6%; in test [2] (genotype: MTA1-KO, 400 nM) it was -23.8%; in test [2] (genotype: MTA1-KO, 2000 nM) it was -20.1%; in test [2] (genotype: MTA1-KO, 10000 nM) it was 43.5%; in test [2] (genotype: control, 16 nM), -8.39%. Further, the viability inhibition was 1.22% in test [2] (genotype: control, 80 nM); 8.03% in test [2] (genotype: control, 400 nM); 5.54% in test [2] (genotype: control, 2000 nM); 67.5% in test [2] (genotype: control, 10000 nM).
